Reference: PubChem BioAssay AID2060627 (Molecular Pharmacology Branch, DTP, NCI, 2025)
Values joined by “and” are separate entries in the source; they are usually repeats but may differ in a detail not shown here. Equal entries are not always repeated.

System: 156681-154-R-J1-PDC complex spheroid viability
Assay: Anticancer human tumor 156681-154-R-J1-PDC patient-derived melanoma cell line growth inhibition [CLK]
Settings: for viability, T/C: stronger effect = lower value; active means viability on the fitted dose curve at most 10% of control; inactive means the rest
In short: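 Multi-cell-type spheroids combined patient-derived tumor cells with HUVEC endothelial cells and human mesenchymal stem cells. Paired agents were dosed in half-log steps down from about clinical Cmax, or from 10 microM where Cmax was unknown.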

[1] = curve of first compound, second compound 0.0316 µM
[2] = curve of first compound, second compound 0.1 µM
[3] = curve of first compound, second compound 0.316 µM
[4] = curve of first compound, second compound 1 µM
[5] = curve of first compound, second compound 3.16 µM
[6] = curve of first compound, second compound 10 µM
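Further: spheroids exposed to the agents for seven days.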
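Wherever viability, T/C is given: 100% = DMSO vehicle control viability.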

CC(C)CC(NC(=O)C(Cc1ccccc1)NC(=O)c1cnccn1)B(O)O (stereo not drawn) + CN1CCN(c2cc(C(=O)Nc3cc4cc(-c5cnn(C)c5)ccc4cn3)ccn2)CC1
inactive: viability, T/C (second compound 0.0316 µM, first compound 0.000949 µM) 30.4% | viability, T/C (second compound 0.1 µM, first compound 0.000949 µM) 28% | viability, T/C (second compound 0.316 µM, first compound 0.000949 µM) 13%
active: viability, T/C (second compound 0.0316 µM, first compound 0.003 µM) 2% | viability, T/C (second compound 0.0316 µM, first compound 0.00949 µM) 1.41% | viability, T/C (second compound 0.0316 µM, first compound 0.03 µM) 0.26% | viability, T/C (second compound 0.0316 µM, first compound 0.0949 µM) 1.66% | viability, T/C (second compound 0.0316 µM, first compound 0.3 µM) 1.32% | viability, T/C (second compound 0.1 µM, first compound 0.003 µM) 0.48% | viability, T/C (second compound 0.1 µM, first compound 0.00949 µM) 1.04% | viability, T/C (second compound 0.1 µM, first compound 0.03 µM) 0.2% | viability, T/C (second compound 0.1 µM, first compound 0.0949 µM) 0.26% | viability, T/C (second compound 0.1 µM, first compound 0.3 µM) 0.77% | viability, T/C (second compound 0.316 µM, first compound 0.003 µM) 0.37% | viability, T/C (second compound 0.316 µM, first compound 0.00949 µM) 0.66% | viability, T/C (second compound 0.316 µM, first compound 0.03 µM) 0.14% | viability, T/C (second compound 0.316 µM, first compound 0.0949 µM) 0.29% | viability, T/C (second compound 0.316 µM, first compound 0.3 µM) 1.48% | viability, T/C (second compound 1 µM, first compound 0.000949 µM) 0.13% | viability, T/C (second compound 1 µM, first compound 0.003 µM) 0.37% | viability, T/C (second compound 1 µM, first compound 0.00949 µM) 0.14% | viability, T/C (second compound 1 µM, first compound 0.03 µM) 0.09% | viability, T/C (second compound 1 µM, first compound 0.0949 µM) 1.37% | viability, T/C (second compound 1 µM, first compound 0.3 µM) 0.12% | viability, T/C (second compound 3.16 µM, first compound 0.000949 µM) 0.33% | viability, T/C (second compound 3.16 µM, first compound 0.003 µM) 1.51% | viability, T/C (second compound 3.16 µM, first compound 0.00949 µM) 0.09% | viability, T/C (second compound 3.16 µM, first compound 0.03 µM) 0.08% | viability, T/C (second compound 3.16 µM, first compound 0.0949 µM) 3.52% | viability, T/C (second compound 3.16 µM, first compound 0.3 µM) 1.36% | viability, T/C (second compound 10 µM, first compound 0.000949 µM) 0.1% | viability, T/C (second compound 10 µM, first compound 0.003 µM) 1.45% | viability, T/C (second compound 10 µM, first compound 0.00949 µM) 2.17% | viability, T/C (second compound 10 µM, first compound 0.03 µM) 0.1% | viability, T/C (second compound 10 µM, first compound 0.0949 µM) 1.66% | viability, T/C (second compound 10 µM, first compound 0.3 µM) 0.84%
< 0.949 nM: IC50 [1] | IC50 [2] | IC50 [3] | IC50 [4] | IC50 [5] | IC50 [6]

COC1C=CCC(C)C(C)S(=O)(=O)NC(=O)c2ccc3c(c2)N(CC2CCC21)CC1(CCCc2cc(Cl)ccc21)CO3 (stereo not drawn) + CN1CCN(c2cc(C(=O)Nc3cc4cc(-c5cnn(C)c5)ccc4cn3)ccn2)CC1
inactive: viability, T/C (second compound 0.0316 µM, first compound 0.0316 µM) 111% | viability, T/C (second compound 0.0316 µM, first compound 0.1 µM) 83.4% | viability, T/C (second compound 0.0316 µM, first compound 0.316 µM) 86.8% | viability, T/C (second compound 0.0316 µM, first compound 1 µM) 75.4% | viability, T/C (second compound 0.0316 µM, first compound 3.16 µM) 13.8% | viability, T/C (second compound 0.1 µM, first compound 0.0316 µM) 90.1% | viability, T/C (second compound 0.1 µM, first compound 0.1 µM) 97.8% | viability, T/C (second compound 0.1 µM, first compound 0.316 µM) 81.2% | viability, T/C (second compound 0.1 µM, first compound 1 µM) 58% | viability, T/C (second compound 0.1 µM, first compound 3.16 µM) 11.7% | viability, T/C (second compound 0.316 µM, first compound 0.0316 µM) 27.3% | viability, T/C (second compound 0.316 µM, first compound 0.1 µM) 17.2% | viability, T/C (second compound 0.316 µM, first compound 0.316 µM) 16.7%
< 31.6 nM: IC50 [3] | IC50 [4] | IC50 [5] | IC50 [6]
active: viability, T/C (second compound 0.0316 µM, first compound 10 µM) 1.82% | viability, T/C (second compound 0.1 µM, first compound 10 µM) 2.71% | viability, T/C (second compound 0.316 µM, first compound 1 µM) 10.2% | viability, T/C (second compound 0.316 µM, first compound 3.16 µM) 4.46% | viability, T/C (second compound 0.316 µM, first compound 10 µM) 1.8% | viability, T/C (second compound 1 µM, first compound 0.0316 µM) 0.2% | viability, T/C (second compound 1 µM, first compound 0.1 µM) 0.34% | viability, T/C (second compound 1 µM, first compound 0.316 µM) 0.18% | viability, T/C (second compound 1 µM, first compound 1 µM) 0.14% | viability, T/C (second compound 1 µM, first compound 3.16 µM) 0.12% | viability, T/C (second compound 1 µM, first compound 10 µM) 2.25% | viability, T/C (second compound 3.16 µM, first compound 0.0316 µM) 0.14% | viability, T/C (second compound 3.16 µM, first compound 0.1 µM) 2.92% | viability, T/C (second compound 3.16 µM, first compound 0.316 µM) 1.77% | viability, T/C (second compound 3.16 µM, first compound 1 µM) 0.13% | viability, T/C (second compound 3.16 µM, first compound 3.16 µM) 2.33% | viability, T/C (second compound 3.16 µM, first compound 10 µM) 1.15% | viability, T/C (second compound 10 µM, first compound 0.0316 µM) 0.16% | viability, T/C (second compound 10 µM, first compound 0.1 µM) 0.14% | viability, T/C (second compound 10 µM, first compound 0.316 µM) 0.26% | viability, T/C (second compound 10 µM, first compound 1 µM) 0.22% | viability, T/C (second compound 10 µM, first compound 3.16 µM) 0.29% | viability, T/C (second compound 10 µM, first compound 10 µM) 0.25%
1170 nM: IC50 [2]
1600 nM: IC50 [1]

CN1CCN(c2cc(C(=O)Nc3cc4cc(-c5cnn(C)c5)ccc4cn3)ccn2)CC1
inactive: viability, T/C (compound 0.0316 µM) 102% [middle of 12 runs] | viability, T/C (compound 0.1 µM) 97.7% [middle of 12 runs] | viability, T/C (compound 0.316 µM) 24.3% [middle of 12 runs]
212 nM [middle of 9 runs]: IC50 (compound alone, run of 08/14/2023)
active: viability, T/C (compound 1 µM) 1.19% [middle of 12 runs] | viability, T/C (compound 3.16 µM) 0.58% [middle of 11 runs] | viability, T/C (compound 10 µM) 0.34% [middle of 10 runs]

Nc1ccn(C2OC(CO)C(O)C2(F)F)c(=O)n1 (stereo not drawn)
< 31.6 nM: IC50 (curve of compound)
inactive: viability, T/C (compound 0.0316 µM) 14.4% and 13.7% | viability, T/C (compound 0.1 µM) 13.7% and 12.6% | viability, T/C (compound 0.316 µM) 15.7% and 16.1% | viability, T/C (compound 1 µM) 12.8% and 13.2% | viability, T/C (compound 3.16 µM) 16.9% and 14.6% | viability, T/C (compound 10 µM) 13.1% and 14.5%
